Reference: patent US20240425867A1, “NUCLEIC ACID-BASED ASSEMBLY AND USES THEREOF” (Rheinische Friedrich-Wilhelms-Universität Bonn, priority 2016, published 2024)
Values joined by “and” are separate entries in the source; they are usually repeats but may differ in a detail not shown here. Equal values may be shown once.

What was measured:
H1838 cells [1] = assay: Confocal microscopy of photo-triggered DxR release in cells; type: cell-based, human; settings: DxR 40 μM, 37° C., 2 h, without UV irradiation
Procedure: In vitro cell imaging of the cell internalization studies were performed using fluorescence microscopy. Prior to each experiment one 70 to 80% confluent flask was trypsinised and suspended with 10 ml of cell medium. 10 μL of the cell solution was pipetted onto a haemocytometer and the cells were counted. Twenty-four hours prior to the internalization experiments approximately 10,000 NSCLC cells were seeded in 96-well glass bottom multiwell cell culture plates (MatTek® Corporation). The plates were then incubated for 24 hours at 37° C. in 5% CO2-atmosphere. […]
To verify the HyApNc-mediated selective transport of DxR to target cells and its light-triggered release from motif 4, we monitored the fluorescence signal of DxR within and outside of the cell nuclei of H1838 cells that were treated with either free DxR (as control) or with HyApNc-DxR (see Example 1 for details of DxR loading), while keeping the DxR concentrations in the bound and the unbound form fixed at 40 μM (5 μM HyApNc carrying 8 equivalents of DxR). […] When control experiments were performed with a construct lacking DMAB (HyApNcw/oAz-DxR), near-identical DxR fluorescence signals are predominantly observed in the cytosol of the cells with and without UV exposure (FIG. 24A, IV-V).

[2] = tested on: NCI-H1838 lung cancer cells; assay: Cell viability (MTT) assay, dose dependent; type: cell-based; settings: Homo sapiens, free DxR alone (control), MTT after 24 h
Procedure: To assess the cytotoxicity of free DxR and HyApNc-DxR in NCI-H1838 lung cancer cells, the H1838 cells (2×10^4 cells/well) were seeded in a 96 well plate and grown for 24 h. The cells were then washed with 1×PBS (200 μL) and subsequently treated with i) free DxR (as control), ii) HyApNc-DxR or iii) HyApNc.mut-DxR in a dose dependent way with a final DxR concentration ranging from 0.125μM to 50 μM per well. After 2 h of post-treatment, the cells were washed; the RPMI medium was replaced with a fresh RPMI medium, and subsequently either irradiated with UV light for 5 minutes (_=365 nm; 350 mW/cm^2), or not irradiated. Afterwards the cells were incubated for another 24 h at 37° C.
Then for both experiments, 15 μL of a 3-(4,5-dimethylthiazol-2-yl)-2,5-diphenyltetrazolium bromide (MTT) stock solution (5 mg/mL) was added to each well and the cells were incubated at 37° C. for 6 hours. After 6 h post-tretment with MTT solutions, 100 μL of the SDS-HCL solution was added to each well and mixed thoroughly with a pipette and incubated at 37° C. for an additional 12 hours. Finally the absorbance was measured at λ=570 nm by using a Tecan Infinite® M1000 PRO microplate reader.

H1838 cells [3] = settings: DxR 8 μM, 37° C., 2 h, non-irradiated
Procedure: For flow cytometry analysis of HyApNc-mediated DxR uptake, the H1838 cells (1×10^5 cells/well) were seeded for 24 h at 37° C. […] The plates were then incubated for 2 h at 37° C. Afterwards, the cells were detached from the plates by trypsinization and transferred to FACS tubes. The cells were then washed twice by centrifugation with 0.5 mL buffer. Afterwards the cell pellets were resuspended in 100 μL 1×PBS buffer and cither irradiated with UV light for 5 minutes (_=365 nm, 350 mW/cm^2) or not irradiated before subjected to FACS analysis. Fluorescence emissions of the internalized DxR were recorded with a 585/42-nm band-pass filter.

cMet [4] = target: T1, cMet (Homo sapiens, UniProt P08581); assay: Filter retention assay with 32P-labeled aptamer; type: binding; settings: filter retention assays
T1 construct: cMet-Fc, which represents the ectodomain of cMet fused to the Fc domain of human IgG1 was purchased from R&D Systems; purchased R&D Systems
T1 sequence (P08581 25-932 limits assumed): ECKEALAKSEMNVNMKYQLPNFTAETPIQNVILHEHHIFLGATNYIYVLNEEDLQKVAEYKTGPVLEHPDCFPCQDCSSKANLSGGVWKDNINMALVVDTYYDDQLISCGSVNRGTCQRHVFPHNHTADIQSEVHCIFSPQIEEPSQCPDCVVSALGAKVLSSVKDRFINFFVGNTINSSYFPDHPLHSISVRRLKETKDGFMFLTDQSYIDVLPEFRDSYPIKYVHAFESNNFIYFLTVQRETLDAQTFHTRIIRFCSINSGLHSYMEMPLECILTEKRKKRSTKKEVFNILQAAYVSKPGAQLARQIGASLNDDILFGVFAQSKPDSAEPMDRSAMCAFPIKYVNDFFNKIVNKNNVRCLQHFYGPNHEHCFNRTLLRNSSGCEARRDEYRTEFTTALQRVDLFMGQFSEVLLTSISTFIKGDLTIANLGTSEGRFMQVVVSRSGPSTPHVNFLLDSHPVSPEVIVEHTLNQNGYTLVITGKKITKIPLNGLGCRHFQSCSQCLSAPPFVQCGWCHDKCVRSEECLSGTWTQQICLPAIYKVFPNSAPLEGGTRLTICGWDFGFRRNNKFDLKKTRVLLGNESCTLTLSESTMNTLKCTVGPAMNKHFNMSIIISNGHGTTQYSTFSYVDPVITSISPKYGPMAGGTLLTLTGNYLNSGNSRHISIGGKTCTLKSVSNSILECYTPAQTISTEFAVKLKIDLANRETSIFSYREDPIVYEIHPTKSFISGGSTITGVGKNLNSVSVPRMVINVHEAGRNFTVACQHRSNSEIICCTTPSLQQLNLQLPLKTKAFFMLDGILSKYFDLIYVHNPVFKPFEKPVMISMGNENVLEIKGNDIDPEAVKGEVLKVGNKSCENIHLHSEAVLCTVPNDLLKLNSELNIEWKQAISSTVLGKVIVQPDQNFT
Text: The anti-cMet aptamer trCLN3, a 40 nucleotide DNA oligonucleotide rich in guanine sequence, is known to form two intramolecular G-quadruplex structure within the G-rich segment of the aptamer. The G-quadruplex structure in trCLN3 is believed to play a role in target recognition and binding to cMet. […] See J. Vinkenborg et al., Angew Chem Int Ed. 2012, […], 9176-9180; which reference is incorporated herein in its entirety. Binding affinity of trCLN3.mut, a control sequence with a guanine double-point mutation corresponding to G7 and G25 was further verified by filter retention assays.

[5] = Serum stability in PBS-buffered fetal calf serum (PAGE of 32P-labeled aptamer); type: in vitro ADME; settings: 10% PBS-buffered FCS, 37° C., 0 to 72 h
Procedure: (§1) Serum stabilities of trCLN3, its two point mutant non-binding variant trCLN3.mut and their corresponding lipid-functionalized derivatives trCLN3-L4 and trCLN3.mut-L4 were investigated in fetal calf serum (FCS) and human blood serum. For this purpose, the aptamer motifs were labeled at their 5′-end with ^32P to form radiolabeled oligonucleotides. The degradation tests of all the aptamer motifs were performed for 60-72 h at 37°° C. 6 pmol (12 μl of 0.5 μM) of the radio-labeled aptamer (5′-end-labeled with γ-^32P) was incubated in a volume of 300 μl freshly thawed PBS-buffered FCS or human blood serum (270 μl serum+30 μl 10×PBS). For each measurement, 10 μl of the samples were removed, mixed with 90 μl of gel loading buffer (80% formamide+5 mM EDTA+0.01% SDS) and subsequently stored at −20° C. Aliquots of samples were taken after indicated time intervals of 0, 0.3, 1.5, 3, 6, 24, 48, 60 and 72h respectively. The serum stability of the aptamer in FCS or in HBS at different time intervals were analyzed on a denaturing PAGE by loading 10 μl of each sample onto a 10% TAE-Urea gel and running the gels for 90 minutes at 350 V. Gels were wrapped in clingfilm and exposed to a phosphorimager screen in a closed cassette over a period of 12 h and finally the residual intact aptamer bands were analyzed by scanning the screen in a phosphorimage-scanner (FujiFilm FLA 3000). Intensities of the residual intact aptamer bands were calculated applying AIDA image analyzer software program. Serums half-lives of the selected aptamers were determined by using a half-life curve-fitting data analysis program (GraphPad Prism).

[6] = Serum stability in PBS-buffered human blood serum (PAGE of 32P-labeled aptamer); type: in vitro ADME; settings: 10% PBS-buffered HBS, 37° C., 0 to 72 h
Procedure: as §1

cMet [7] = target: T1, cMet; assay: Competitive filter-binding assay against γ-32P-labeled trCLN3; settings: competition with γ-32P-trCLN3, cMet ~50 nM, competitor 1 μM-25 pM, 37° C.
Procedure: To test the effect of lipid-modification on trCLN3 binding properties, we determined IC50 values for each trCLN3 derivative by a competitive filter retention assay in which varying concentrations of unlabeled 5′-(1-dodecynyl)-functionalized trCLN3 aptamers competed with constant amounts of γ-^32P-labeled trCLN3 in binding to cMet. Two control experiments were also performed using unlabeled trCLN3 and its two point mutant variant trCLN3.mut as competitors.
First, the trCLN3 motif was 5′-end-labeled with γ-^32P ATP using T4 polynucleotide kinase. An aliquot of 20 μL solution containing 50 pmol trCLN3. 6.7 pmol γ-^32P ATP and 20 U T4 polynucleotide kinase in 1× polynucleotide kinase buffer (New England Biolabs) was incubated at 37° C. for 45 min. followed by removal of unreacted γ-^32P ATP using an Illustra G-25 microspin column (GE Healthcare. München, Germany). The purity of the radiolabeled aptamer was confirmed using a 10% PAGE-gel.
0.25 mg/ml BSA. 2 mM MgCl2 in 1×PBS, pH 7.4. […] Residual radioactivity due to cMet bound labeled aptamers was quantified using Fujifilm Fla-3000 PhosphorImager and AIDA software. The curves were fitted with GraphPadPrism 3.02 plotting non-linear regression curve and the IC50 values have been calculated assuming a competition for single binding site.

cMet [8] = target: T1, cMet; settings: binding to HGFR (cMet); read-out: dissociation constant (Kd); cited from earlier work

Row | IC50 [2] | Molecule | DxR fluorescence in cell nuclei (confocal) (H1838 cells [1]) | increase in mean cellular fluorescence intensity vs equivalent dose of HyApNc-DxR or HyApNcw/oAz-DxR (H1838 cells [3]) | binding to cMet (cMet [4]) | serum half-life (t1/2) [5] | serum half-life (t1/2) [6] | IC50 (cMet [7]) | Kd (cMet [8])
1 | 8 µM and 4.7 µg/mL | COc1cccc2c1C(=O)c1c(O)c3c(c(O)c1C2=O)C[C@@](O)(C(=O)CO)C[C@@H]3O[C@H]1C[C@H](N)[C@H](O)[C@H](C)O1 [free DxR, (7S,9S)-7-[(2R,4S,5S,6S)-4-amino-5-hydroxy-6-methyloxan-2-yl]oxy-6,9,11-trihydroxy-9-(2-hydroxyacetyl)-4-methoxy-8,10-dihydro-7H-tetracene-5,12-dione] | Strong DxR fluorescence | 5 fold | – | – | – | – | –
2 | – | trCLN3.mut: non-binding control sequence of trCLN3 with guanine double-point mutation at G7 and G25 (DNA TGGATGATAGCTCGGTCGGGGTGGATGGGTTGGCAAGTCT; DNA, backbone and methylation of C not given here) | – | – | almost no binding | 2.8 h | 1.9 h | – | –
3 | – | trCLN3: 40-nucleotide anti-cMet DNA aptamer, 5′-TGGATGGTAGCTCGGTCGGGGTGGGTGGGTTGGCAAGTCT-3′ (DNA, backbone and methylation of C not given here) | – | – | – | 8.7 h | 4.9 h | 56 nM | 38 nM
